Test results reported in patent publication US11773127B2, “Compounds and methods for treating bacterial infections” (Washington University, priority 2017, dated 2023).
Where two headings read alike, the source gives them in different places.

Target: T1, FmlHLD (Escherichia coli, UniProt P77588)
T1 construct: 6xHis (C); made in house; host or cells: E. coli C600, periplasm, pTRC99a
Assay: biochemical
Format: binding, E. coli
Conditions: for PI100 (percent inhibition): galactoside at 100 μM; for inhibitory potency against FmlH, in words: ELISA-based competition assay
Protocol: Thereafter, wells were incubated with 200 μl blocking buffer (PBS+1% BSA) for 2 hours at 23° C., followed by incubation with 100 μl biotinylated FmlHLD diluted in blocking buffer to 20 μg/ml in the presence or absence of the tested compounds for 1 hr at 23° C. After washing 3× with PBS+0.05% TWEEN-20, 100 μl Streptavidin-HRP conjugate (BD Biosciences; 1:2000 dilution in blocking buffer) was added to each well for 1 hr at 23° C. After a final round of washing, plates were developed with 100 μl Tetramethylbenzidine (TMB, BD Biosciences) substrate, quenched within 1-2 min with 50 μl […], and absorbance measured at 450 nm.
Select top hit compounds and few low-scoring analogs from the virtual screening, as well as synthetic galactosides, were tested in the ELISA-based competition assay for their ability to inhibit binding of FmlHLD to ds-BSM. The ELISA assay was performed using the protocol described in Example 18. […] All compounds were tested at 100 μM; a subset was tested at 10 μM; and the strongest subset was additionally tested at 1 μM. […] Percent inhibition (PI) values are reported as the mean with standard error of the mean for galactosides tested at 100 μM (PI100), 10 μM (PI10), and 1 μM (PI1) in the ELISA-based competition assay. […] The “thio” designation indicates a sulfur linkage between the sugar and the aglycone group, the “phospho” designation indicates a phosphate group attached the C6-hydroxyl group on the sugar, and the “uro” designation indicates galacturonide as the sugar.
The ELISA assay was performed using the protocol described in Example 18. All compounds were tested at 1 μM and a subset was additionally tested at 100 nM. Average percent inhibition (PI) values are reported for compounds tested at 1 μM (PI1) and 100 nM (PI0.1).
Briefly, 1 μg bovine submaxillary mucin (Sigma) in 100 uL PBS were incubated with Immulon 4HBX 96-well plates overnight prior to treatment with 1 mU Arthrobacter ureafaciens sialidase for 1 hour at 37° C. to remove terminal sialic acid sugars. Wells were then blocked with 200 μL PBS+1% BSA for 2 hours at room temperature. Biotinylated FmlH^LD was diluted to 20 μg/mL in blocking buffer and incubated in the presence or absence of compounds serially diluted 2× down eight rows for 1 hour at room temperature. Wells were washed three times with PBS 0.05% TWEEN-20 then incubated with 100 μL of streptavidin-HRP conjugate (BD Biosciences; 1:2,000 dilution in blocking buffer) for one hour. After three additional PBS+0.05% TWEEN washes, plates were developed with 100 μL of tetramethylbenzidine (BD Biosciences) substrate and quenched with 50 μL of 1 M H2SO4. Total bound portion concentration was measured by the absorbance at 450 nm. IC50s were determined using the Graphpad Prism software.
The compounds synthesized herein were tested in the ELISA-based competition assay for their ability to inhibit binding of FmlHLD to ds-BSM. The ELISA assay was performed using the protocol described in Example 18. Compounds were tested at […], 1 μM, and 100 nM. as indicated on the table. […] ND means the corresponding value was not determined for this summary (but may be available elsewhere in the Examples).

[1] = read-out: % Inhibition at [μM] [1], compound at 1 μM, inhibition of FmlHLD binding to ds-BSM
[2] = read-out: PI(1) (average percent inhibition), compound at 1 μM, Table 4
[3] = IC50, inhibition of FmlHLD binding to ds-BSM
[4] = read-out: % Inhibition at [μM] [10], compound at 10 μM, inhibition of FmlHLD binding to ds-BSM
[5] = read-out: % Inhibition at [μM] [100], compound at 100 μM, inhibition of FmlHLD binding to ds-BSM
[6] = mean with standard error of the mean, 100 µM
[7] = read-out: PI10 (percent inhibition), galactoside at 10 μM, mean with standard error of the mean
[8] = read-out: PI100 (percent inhibition), galactoside at 100 μM, mean with standard error of the mean
[9] = IC50 (μM), Table 5, Gal and GalNAc inhibition of FmlH
[10] = read-out: PI (0.1) (average percent inhibition), compound at 100 nM, Table 4
[11] = read-out: % Inhibition at [μM] [0.1], compound at 0.1 μM (100 nM), inhibition of FmlHLD binding to ds-BSM

T1 sequence (P77588 25-182): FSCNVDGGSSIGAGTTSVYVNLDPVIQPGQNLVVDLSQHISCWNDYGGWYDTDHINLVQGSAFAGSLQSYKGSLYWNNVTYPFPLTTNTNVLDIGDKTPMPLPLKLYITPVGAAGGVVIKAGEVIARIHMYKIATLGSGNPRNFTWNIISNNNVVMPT

CC(=O)N[C@@H]1[C@@H](O)[C@@H](O)[C@@H](CO)O[C@H]1N(CC(=O)NC(C)(C)C)C(=O)c1cccc2cccnc12 [AM1165, N-((2R,3R,4R,5R,6R)-3-acetamido-4,5-dihydroxy-6-(hydroxymethyl)tetrahydro-2H-pyran-2 yl)-N-(2-“(tert-butylamino)-2-oxoethyl)quinoline-8-carboxamide] was tested, and the inhibition at 1 µM [1] was 5.57% and the inhibition at 1 µM [2] was 5.57%.

In the case of Cc1cccc(O[C@@H]2O[C@H](CO)[C@H](O)[C@H](O)[C@H]2NS(C)(=O)=O)c1-c1cccc(NS(C)(=O)=O)c1 [AM2186], the IC50 [3] is reported as 3.5 µM.

With OC[C@H]1O[C@@H](Oc2ccccc2)[C@H](O)[C@@H](O)[C@H]1O [Phenyl Gal, reference compound] the inhibition at 10 µM [4] was 15.5% and the inhibition at 100 µM [5] was 76.9%.

With O=c1ccc2nc3ccc(O[C@@H]4O[C@H](CO)[C@H](O)[C@H](O)[C@H]4O)cc3oc-2c1 [Resorufin Gal, reference compound] the inhibition at 10 µM [4] was 24% and the inhibition at 100 µM [5] was 80.4%.

For CC(=O)N[C@H]1[C@H](Oc2cccc(C)c2-c2cccc(NS(=O)(=O)C3CC3)c2)O[C@H](CO)[C@H](O)[C@@H]1O [AM2151], the IC50 [3] was 0.12 µM.

In the case of Nc1ccc(O[C@@H]2O[C@H](CO)[C@H](O)[C@H](O)[C@H]2O)cc1 [Compound 10β], the “PI100 (percent inhibition)” value [6] is reported as 65.1 ± 1.4%, the inhibition at 10 µM [7] is reported as 9.8 ± 3.9% and the inhibition at 100 µM [8] is reported as 65%.

CC(=O)N[C@H]1[C@H](Oc2ccc([N+](=O)[O-])cc2)O[C@H](CO)[C@@H](O)[C@@H]1O[C@@H]1O[C@H](CO)[C@H](O)[C@H](O)[C@H]1O [Compound 34, p-nitrophenyl Gal-β1-3-GlcNAc, reference compound] was tested, and the “PI100 (percent inhibition)” value (mean with standard error of the mean) was −3.6 ± 1.0%.

For COc1ccc(C(=O)O)cc1-c1ccccc1O[C@@H]1O[C@H](CO)[C@H](O)[C@H](O)[C@H]1NC(C)=O [Compound 2051, 2′-(((2S,3R,4R,5R,6R)-3-acetamido-4,5-dihydroxy-6-(hydroxymethyl)tetrahydro-2H-pyran-2-yl)oxy)-6-methoxy-[1,1′-biphenyl]-3-carboxylic acid], the “inhibitory potency against FmlH, in words” value (“inhibitory potency” for short) was “weakest activity”, the IC50 [9] was 3.87 µM and the “drop in activity relative to 29β-NAc” value (IC50 ratio) was 6 fold. The inhibition at 0.1 µM [10] was 0% and the inhibition at 1 µM [2] was 15.9%.

For COc1ccc(OS(C)(=O)=O)cc1-c1ccccc1O[C@@H]1O[C@H](CO)[C@H](O)[C@H](O)[C@H]1NC(C)=O [AM2077, 2′-(((2S,3R,4R,5R,6R)-3-acetamido-4,5-dihydroxy-6-(hydroxymethyl)tetrahydro-2H-pyran-2-yl)oxy)-6-methoxy-[1,1′-biphenyl]-3-yl methanesulfonate], the “inhibitory potency” value was “equal or slightly reduced potency”, the IC50 [9] was 3.72 µM and the inhibition at 0.1 µM [11] was 2.5%. For the same compound, the inhibition at 1 µM [1] was 0%, the inhibition at 0.1 µM [10] was 2.5% and the inhibition at 1 µM [2] was 0%.

Work on OC[C@H]1O[C@H](Oc2cccc3ccccc23)[C@H](O)[C@@H](O)[C@H]1O [Compound 18α, 1-naphthalenyl α/β-D-galactopyranoside] yielded an inhibition at 100 µM [8] of 28.1 ± 3.4%.

With OC[C@H]1O[C@H](Oc2cccc(-c3ccccc3)c2)[C@H](O)[C@@H](O)[C@H]1O [Compound 31α, [1,1′-biphenyl]-3-yl α/β-D-galactopyranoside] the inhibition at 100 µM [8] was 45.6 ± 2.5%.

N#Cc1ccccc1O[C@@H]1O[C@H](CO)[C@H](O)[C@H](O)[C@H]1O [Compound 3β, 2-cyanophenyl α/β-D-galactopyranoside] was tested, and the “PI100 (percent inhibition)” value [6] was 94.5 ± 0.3%, the inhibition at 1 µM (read-out: PI1 (percent inhibition), galactoside at 1 μM, mean with standard error of the mean) was 12.1 ± 6.3% and the inhibition at 10 µM [7] was 30.4 ± 1.8%. For the same compound, the inhibition at 100 µM [8] was 95%.

Work on COC(=O)c1cccc(-c2ccccc2O[C@H]2O[C@H](CO)[C@H](O)[C@H](O)[C@H]2O)c1 [Compound 30α, 2′-(α/β-D-galactopyranosyloxy)-[1,1′-Biphenyl]-3-carboxylic acid methyl ester] yielded an inhibition at 100 µM [8] of 13.1 ± 7.6%.

In the case of OC[C@H]1O[C@@H](Oc2cccc(-c3ccccc3)c2)[C@H](O)[C@@H](O)[C@H]1O [Compound 114af2], the inhibition at 10 µM [4] is reported as 7.8% and the inhibition at 100 µM [5] is reported as 56.9%.

With OC[C@H]1O[C@H](Oc2cccc(-c3ccccc3)c2)[C@H](O)[C@@H](O)[C@H]1O [Compound 114af1] the inhibition at 100 µM [5] was 45.6%.

O=C(O)c1cccc(-c2ccccc2O[C@H]2O[C@H](CO)[C@H](O)[C@H](O)[C@H]2O)c1 [Compound 29α, 2′-(α/β-D-galactopyranosyloxy)-[1,1′-Biphenyl]-3-carboxylic acid] was tested, and the inhibition at 100 µM [8] was 26.2 ± 5.9%.

In the case of CC(=O)N[C@H]1[C@H](Oc2cccc3ccncc23)O[C@H](CO)[C@H](O)[C@@H]1O (stereo in doubt) [AM1186], the inhibition at 1 µM [1] is reported as 23.5% and the inhibition at 1 µM [2] is reported as 23.5%.

In the case of COc1cccc(-c2ccccc2O[C@@H]2O[C@H](CO)[C@H](O)[C@H](O)[C@H]2NC(C)=O)c1 [AM2029, N-((2S,3R,4R,5R,6R)-4,5-dihydroxy-6-(hydroxymethyl)-2-((3′-methoxy-[1,1′-biphenyl]-2-yl)oxy)tetrahydro-2H-pyran-3-yl)acetamide], the “inhibitory potency” value is reported as “equal or slightly reduced potency”, the IC50 [9] is reported as 2 µM and the inhibition at 1 µM [1] is reported as 15.5%. For the same compound, the inhibition at 1 µM [2] was 15.5%.

COc1cccc(O[C@@H]2OC(CO)[C@H](O)[C@H](O)[C@@H]2NC(C)=O)c1-c1cccc(NS(C)(=O)=O)c1 (stereo partly drawn) [Compound 3083, N-((2S,3S,4R,5R)-4,5-dihydroxy-6-(hydroxymethyl)-2-((6-methoxy-3′-(methylsulfonamido)-[1,1′-biphenyl]-2-yl)oxy)tetrahydro-2H-pyran-3-yl)acetamide] was tested, and the IC50 (IC50 (μM), Table 6, sulfonamides 3078-3090) was 0.15 µM.

In the case of OC[C@H]1O[C@@H](Oc2ccccc2)[C@H](O)[C@@H](O)[C@H]1O [Compound 1β, phenyl β-galactoside], the “PI100 (percent inhibition)” value [6] is reported as 76.9 ± 0.4%, the inhibition at 10 µM [7] is reported as 15.5 ± 4.2% and the inhibition at 100 µM [8] is reported as 77%.

COC(=O)Nc1cccc(-c2ccccc2O[C@@H]2O[C@H](CO)[C@H](O)[C@H](O)[C@H]2NC(C)=O)c1 [AM2065, methyl (2′-(((2S,3R,4R,5R,6R)-3-acetamido-4,5-dihydroxy-6-(hydroxymethyl)tetrahydro-2H-pyran-2-yl)oxy)-[1,1′-biphenyl]-3-yl)carbamate] was tested, and the “inhibitory potency” value was “equal or slightly reduced potency”, the IC50 [9] was 0.63 µM and the IC50 [3] was 1.05 µM. For the same compound, the inhibition at 0.1 µM [11] was 0%, the inhibition at 1 µM [1] was 45.3% and the inhibition at 0.1 µM [10] was 0%. For the same compound, the inhibition at 1 µM [2] was 45.3%.

Work on OC[C@H]1O[C@@H](Oc2cc3c(O)cc(O)cc3[o+]c2-c2ccc(O)cc2)[C@H](O)[C@@H](O)[C@H]1O [PelG, reference compound] yielded an inhibition at 100 µM [5] of 0.74%.

O=c1ccc2nc3ccc(O[C@@H]4O[C@H](CO)[C@H](O)[C@H](O)[C@H]4O)cc3oc-2c1 [Compound 15β, Resorufin galactoside] was tested, and the “PI100 (percent inhibition)” value [6] was 80.4 ± 6.6%, the inhibition at 10 µM [7] was 24 ± 3.2% and the inhibition at 100 µM [8] was 80%.

Work on CC(=O)N[C@H]1[C@H](Oc2ccccc2-c2cc(C(=O)O)cc([N+](=O)[O-])c2)O[C@H](CO)[C@H](O)[C@@H]1O [AM2119] yielded an IC50 [3] of 1.72 µM.
